What was measured:
[1] = system: production of CD69 by B lymphocytes in human whole blood; assay: CD69 Whole Blood Assay (Example 907); type: cell-based; details: Lymphocyte; human whole blood activated with goat F(ab')2 anti-human IgM, 20 hours; percent CD69 positive cells that are also CD20 positive
Excerpt: A CD69 Whole Blood Assay can be conducted on Formula I compounds to determine the ability of compounds to inhibit the production of CD69 by B lymphocytes in human whole blood activated by crosslinking surface IgM with goat F(ab')2 anti-human IgM (Example 907).
Human blood is obtained from healthy volunteers, with the following restrictions: 1 week drug-free, non-smokers. Blood (approximately 20 mls to test 8 compounds) is collected by venipuncture into Vacutainer® (Becton, Dickinson and Co.) tubes with sodium heparin.
Solutions of Formula I compounds at 10 mM in DMSO are diluted 1:10 in 100% DMSO, then are diluted by three-fold serial dilutions in 100% DMSO for a ten point dose-response curve. The compounds are further diluted 1:10 in PBS and then an aliquot of 5.5 µl of each compound is added in duplicate to a 2 ml 96-well plate; 5.5 µl of 10% DMSO in PBS is added as control and no-stimulus wells. Human whole blood - HWB (100 µl) is added to each well. After mixing the plates are incubated at 37 °C, 5% CO2, 100% humidity for 30 minutes. Goat F(ab')2 anti-human IgM (10 µl of a 500 µg/ml solution, 50 µg/ml final) is added to each well (except the no-stimulus wells) with mixing and the plates are incubated for an additional 20 hours. At the end of the 20 hour incubation, samples are incubated with fluorescent labeled antibodies for 30 minutes, at 37 °C, 5% CO2, 100% humidity. Include induced control, unstained and single stains for compensation adjustments and initial voltage settings. Samples are then lysed with PharM Lyse™ (BD Biosciences Pharmingen) according to the manufacturer's instructions. Samples are then transferred to a 96 well plate suitable to be run on the BD Biosciences HTS 96 well system on the LSRII machine. Data acquired and Mean Fluorescence Intensity values were obtained using BD Biosciences DIVA Software. Results are initially analyzed by FACS analysis software (Flow Jo). […] The IC50 values are calculated by Prism version 5, using a nonlinear regression curve fit.

[2] = system: CD86 surface expression; assay: CD86 Inhibition Assay (Example 905), inhibition of B cell activity in total mouse splenocytes; type: cell-based, Balb/c mice; details: Splenocyte; total mouse splenocytes stimulated with 15 µg/ml IgM for 24 hr; gated on CD19+/7AAD- population
Experimental: A CD86 Inhibition assay can be conducted on Formula I compounds for the inhibition of B cell activity using total mouse splenocytes purified from spleens of 8-16 week old Balb/c mice (Example 905).
A generalized procedure for a standard assay for the inhibition of B cell activity that can be used to test Formula I compounds is as follows. Total mouse splenocytes are purified from spleens of 8-16 week old Balb/c mice by red blood cell lysis (BD Pharmingen #555899). Testing compounds are diluted to 0.5% DMSO and incubated with 1.25 x 10^6 splenocytes in a final volume of 200 µl in flat clear bottom plates (Falcon 353072) for 60 min at 37°C. Cells are then stimulated with the addition of 15 µg/ml IgM (Jackson ImmunoResearch 115-006-020), and incubated for 24 hr at 37°C, 5% CO2. Following the 24 hr incubation, cells are transferred to conical bottom clear 96-well plates and pelleted by centrifugation at 1200 x g x 5 min. Cells are preblocked by CD16/CD32 (BD Pharmingen #553142), followed by triple staining with CD19-FITC (BD Pharmingen #553785), CD86-PE (BD Pharmingen #553692), and 7AAD (BD Pharmingen #51-68981E). Cells are sorted on a BD FACSCalibur and gated on the CD19^+/7AAD^- population. The levels of CD86 surface expression on the gated population is measured versus test compound concentration. Exemplary results are in Table 3.

[3] = biological target: T1, full length human wildtype Btk (Homo sapiens, UniProt Q06187); assay: Biochemical Btk Kinase Assay (Example 901); details: time-resolved fluorescence, final ATP concentration 40 µM; alternatively Lanthascreen assay, ATP 25 uM
T1 construct: V5 (C); 6xHis (C); made in house; host or cells: Sf9 insect cells (baculovirus, pFastBac)
Experimental: Formula I compounds were tested by a standard biochemical Btk Kinase Assay (Example 901). A generalized procedure for a standard biochemical Btk Kinase Assay that can be used to test Formula I compounds is as follows. […] Btk enzyme is prepared as follows: full length human wildtype Btk (accession number NM-000061) with a C-terminal V5 and 6x His tag was subcloned into pFastBac vector for making baculovirus carrying this epitope-tagged Btk. Generation of baculovirus is done based on Invitrogen's instructions detailed in its published protocol "Bac-to-Bac Baculovirus Expression Systems" (Cat. Nos. 10359-016 and 10608-016). Passage 3 virus is used to infect Sf9 cells to overexpress the recombinant Btk protein. The Btk protein is then purified to homogeneity using Ni-NTA column. The purity of the final protein preparation is greater than 95% based on the sensitive Sypro-Ruby staining. A solution of 200 µM ATP is prepared in water and adjusted to pH7.4 with 1N NaOH. A quantity of 1.25 µL of compounds in 5%DMSO is transferred to a 96-well ½ area Costar polystyrene plate. Compounds are tested singly and with an 11-point dose-responsive curve (starting concentration is 10 µM; 1:2 dilution). A quantity of 18.75 µL of master mix minus enzyme (as a negative control) and master mix plus enzyme is transferred to appropriate wells in 96-well ½ area costar polystyrene plate. 5 µL of 200 µM ATP is added to that mixture in the 96-well ½ area Costar polystyrene plate for final ATP concentration of 40 µM. The reaction is allowed to incubate for 1 hour at room temperature. The reaction is stopped with Perkin Elmer 1X detection buffer containing 30 mM EDTA, 20 nM SA-APC, and 1 nM PT66 Ab. The plate is read using time-resolved fluorescence with a Perkin Elmer Envision using excitation filter 330 nm, emission filter 665 nm, and 2nd emission filter 615 nm. IC50 values are subsequently calculated. Alternatively, the Lanthascreen assay can be used to evaluate Btk activity through quantification of its phosphorylated peptide product. The FRET (Fluorescence Resonance Energy Transfer) that occurs between the fluorescein on the peptide product and the terbium on the detection antibody decreases with the addition of inhibitors of Btk that reduce the phosphorylation of the peptide. […] After incubation for 60 minutes at room temperature, the reaction is stopped by the addition of a final concentration of 2 nM Tb-PY20 detection antibody in 60 mM EDTA for 30 minutes at room temperature. Detection is determined on a Perkin Elmer Envision with 340 nm excitation and emission at 495 nm and 520 nm. Exemplary Btk inhibition IC50 values are in Tables and 2.

T1 sequence (Q06187 whole entry): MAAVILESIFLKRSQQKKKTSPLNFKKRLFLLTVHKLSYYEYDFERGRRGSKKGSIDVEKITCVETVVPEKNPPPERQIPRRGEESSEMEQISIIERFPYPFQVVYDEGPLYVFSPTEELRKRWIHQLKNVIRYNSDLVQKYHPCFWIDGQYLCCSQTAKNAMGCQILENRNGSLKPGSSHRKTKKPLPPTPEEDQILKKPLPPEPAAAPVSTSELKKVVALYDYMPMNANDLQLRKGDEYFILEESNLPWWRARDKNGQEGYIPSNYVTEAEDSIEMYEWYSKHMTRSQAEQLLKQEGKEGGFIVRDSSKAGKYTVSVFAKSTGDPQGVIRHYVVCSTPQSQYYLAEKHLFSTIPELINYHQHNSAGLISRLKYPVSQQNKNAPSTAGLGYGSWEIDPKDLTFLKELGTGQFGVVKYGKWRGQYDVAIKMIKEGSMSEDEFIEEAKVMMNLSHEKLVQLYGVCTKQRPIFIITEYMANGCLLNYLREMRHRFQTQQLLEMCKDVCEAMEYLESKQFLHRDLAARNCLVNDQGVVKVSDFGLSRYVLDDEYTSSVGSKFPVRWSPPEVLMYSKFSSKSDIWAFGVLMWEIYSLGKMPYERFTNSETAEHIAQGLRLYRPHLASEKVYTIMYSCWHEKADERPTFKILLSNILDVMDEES

Cn1nc(-c2ccc(F)c(N3Cc4cc(C(C)(C)C)sc4C3=O)c2CO)cc(Nc2cc(C3CC3)[nH]n2)c1=O [Compound 142, 6-(3-{2-tert-butyl-6-oxo-4H,5H,6H-thieno[2,3-c]pyrrol-5-yl} -4-fluoro-2-(hydroxymethyl)phenyl)-4-[(5-cyclopropyl-1H-pyrazol-3-yl)amino]-2-methyl-2,3-dihydropyridazin-3-one]
IC50 [1]: 410 nM
EC50 [2]: 1200 nM

CC(C)(C)c1cc2c(s1)C(=O)N(c1nc(-c3cc(Nc4cc(C5CC5)[nH]n4)c(=O)[nH]n3)ccc1F)C2 [Compound 116, 6-(6-{2-tert-butyl-6-oxo-4H,5H,6H-thieno[2,3-c]pyrrol-5-yl}-5-fluoropyridin-2-yl)-4-[(5-cyclopropyl-1H-pyrazol-3-yl)amino]-2,3-dihydropyridazin-3-one]
IC50 [3]: 35 nM
IC50 [1]: 2500 nM

Cn1nc(-c2cccc(N3Cc4cc(C(C)(C)C)sc4C3=O)c2CO)cc(Nc2cc3n(n2)CCN(C2CC2)C3)c1=O [Compound 133, 6-(3-{2-tert-butyl-6-oxo-4H,5H,6H-thieno[2,3-c]pyrrol-5-yl}-2-(hydroxymethyl)phenyl)-4-({5-cyclopropyl4H,5H,6H,7H-pyrazolo[1,5-a]pyrazin-2-yl}amino)-2-methyl-2,3-dihydropyridazin-3-one]
IC50 [1]: 147 nM

Cc1c(-c2cc(Nc3cc4n(n3)CCN(C)C4)c(=O)[nH]n2)cc(F)cc1N1Cc2cc(C(C)(C)C)sc2C1=O [Compound 122, 6-(3-{2-tert-butyl-6-oxo-4H,5H,6H-thieno[2,3-c]pyrrol-5-yl}-5-fluoro-2-methylphenyl)-4-({5-methyl-4H,5H,6H,7H-pyrazolo[1,5-a]pyrazin-2-yl}amino)-2,3-dihydropyridazin-3-one]
IC50 [1]: 101 nM
EC50 [2]: 211 nM

Cc1c(-c2cc(Nc3cc(C4CC4)[nH]n3)c(=O)[nH]n2)cccc1N1Cc2cc(C(C)(C)C)sc2C1=O [Compound 113, 6-(3-{2-tert-butyl-6-oxo-4H,5H,6H-thieno[2,3-c]pyrrol-5-yl}-2-methylphenyl)-4-[(5-cyclopropyl-1H-pyrazol-3-yl)amino]-2,3-dihydropyridazin-3-one]
IC50 [3]: 4 nM
IC50 [1]: 213 nM
